From US20260028354A1, “TETRAHYDRONAPHTHALENE DERIVATIVES AS ESTROGEN RECEPTOR DEGRADERS” (REGENT OF THE UNIVERSITY OF MICHIGAN, priority 2022, published 2026)
Like-named read-outs stand apart in the source and are kept apart here.

Legend:
MCF-7 cells = test: CellTiter-Glo (CTG) cell proliferation assay in MCF-7 cells; type: cell-based; settings: Homo sapiens, MCF7, 144 h, MCF-7 cell proliferation, Day 6
From the text: CellTiter-Glo® (CTG) Assays in MCF-7 and T47D Cell Lines.
In vitro Assay: MCF-7 and T47D CTG assay

ER in MCF-7 cells = ER in MCF-7 cells (Homo sapiens (Human), UniProt P03372); test: In-cell Western (ICW) ER degradation assay in MCF-7 cells; type: cell-based; settings: for DC50: MCF-7, ER degradation, read-out: MCF7 DC50
[1] = MCF7, MCF-7, maximal ER degradation, 16 hrs treatment, read-out: MCF7 Dmax
[2] = MCF7, read-out: MCF7 Dmax, MCF-7, maximal ER degradation, 16 hrs treatment

ER in MCF-7 cells, sequence (P03372 whole entry): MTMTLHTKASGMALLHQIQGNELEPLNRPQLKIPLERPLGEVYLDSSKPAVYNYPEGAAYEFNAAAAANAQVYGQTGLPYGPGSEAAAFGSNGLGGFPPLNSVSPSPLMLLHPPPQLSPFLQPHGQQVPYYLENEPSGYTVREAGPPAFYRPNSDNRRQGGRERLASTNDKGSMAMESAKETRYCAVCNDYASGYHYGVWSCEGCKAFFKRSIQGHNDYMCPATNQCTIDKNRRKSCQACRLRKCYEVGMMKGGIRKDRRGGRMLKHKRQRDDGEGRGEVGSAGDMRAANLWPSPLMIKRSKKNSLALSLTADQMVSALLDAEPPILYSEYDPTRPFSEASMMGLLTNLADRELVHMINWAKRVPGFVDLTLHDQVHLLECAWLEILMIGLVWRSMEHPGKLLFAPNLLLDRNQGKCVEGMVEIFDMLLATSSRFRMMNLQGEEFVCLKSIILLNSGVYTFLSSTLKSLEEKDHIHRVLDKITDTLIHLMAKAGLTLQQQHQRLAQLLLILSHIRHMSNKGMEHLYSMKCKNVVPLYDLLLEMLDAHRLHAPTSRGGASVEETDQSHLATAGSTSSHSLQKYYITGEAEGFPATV

COc1c([C@@H]2c3ccc(O)cc3CC[C@@H]2c2ccccc2)ccc(N2CCC3(CC2)CC(CN2CCN4c5cc6c(cc5OC[C@@H]4C2)C(=O)N([C@H]2CCC(=O)NC2=O)C6)C3)c1F [Compound A197, (S)-3-((S)-3-((7-(2-fluoro-4-((1S,2S)-6-hydroxy-2-phenyl-1,2,3,4-tetrahydronaphthalen-1-yl)-3-methoxyphenyl)-7-aza-spiro[3.5]nonan-2-yl)methyl)-8-oxo-1,2,3,4,4a,5,8,10-octa-hydro-9H-pyrazino[1′,2′:4,5] [1,4]oxazino[2,3-f]isoindol-9-yl)piperidine-2,6-dione]
IC50 (MCF-7 cells): 10 to 100 nM
Dmax (ER in MCF-7 cells; [1]): > 75%
DC50 (ER in MCF-7 cells; 16 hrs treatment): < 1 nM

COc1c([C@@H]2c3ccc(O)cc3CC[C@@H]2c2ccccc2)ccc(N2CCC3(CC2)CC(CN2CCC4(CC2)COc2c4ccc4c2CN([C@H]2CCC(=O)NC2=O)C4=O)C3)c1F [Compound A198, (S)-3-(1′-((7-(2-fluoro-4-((1S, 2S)-6-hydroxy-2-phenyl-1,2,3,4-tetrahydronaphthalen-1-yl)-3-methoxyphenyl)-7-aza-spiro[3.5]nonan-2-yl)methyl)-6-oxo-6,8-dihydro-2H,7H-spiro[furo[2,3-e]isoindole-3,4′-piperidin]-7-yl)piperidine-2,6-dione]
IC50 (MCF-7 cells): 10 to 100 nM
Dmax (ER in MCF-7 cells; [2]): 50 to 75%
DC50 (ER in MCF-7 cells; 16 hrs treatment): < 1 nM

COc1c([C@@H]2c3ccc(O)cc3CC[C@@H]2c2ccccc2)ccc(N2CCC3(CC2)CC(CN2CCC4(CC2)COc2cc5c(cc24)CN([C@H]2CCC(=O)NC2=O)C5=O)C3)c1F [Compound A199, (S)-3-(1′-((7-(2-fluoro-4-((1S, 2S)-6-hydroxy-2-phenyl-1,2,3,4-tetrahydronaphthalen-1-yl)-3-methoxyphenyl)-7-aza-spiro[3.5]nonan-2-yl)methyl)-7-oxo-5,7-dihydro-2H,6H-spiro[furo[2,3-f]isoindole-3,4′-piperidin]-6-yl)piperidine-2,6-dione]
IC50 (MCF-7 cells): < 10 nM
Dmax (ER in MCF-7 cells; [2]): 50 to 75%
DC50 (ER in MCF-7 cells; 16 hrs treatment): < 1 nM

COc1cc(N2CCC3(CC2)CC(CN2CCC4(CC2)COc2c4cc(Cl)c4c2CN([C@H]2CCC(=O)NC2=O)C4=O)C3)c(F)cc1[C@@H]1c2ccc(O)cc2CC[C@@H]1c1ccccc1 [Compound A200, (S)-3-(5-chloro-1′-((7-(2-fluoro-4-((1S,2S)-6-hydroxy-2-phenyl-1,2,3,4-tetrahydro-naphthalen-1-yl)-5-methoxy-phenyl)-7-azaspiro[3.5]nonan-2-yl)methyl)-6-oxo-6,8-dihydro-2H,7H-spiro[furo[2,3-e]isoindole-3,4′-piperidin]-7-yl)piperidine-2,6-dione]
IC50 (MCF-7 cells): < 10 nM
Dmax (ER in MCF-7 cells; [2]): > 75%
DC50 (ER in MCF-7 cells; 16 hrs treatment): < 1 nM

O=C1CC[C@H](N2Cc3c(ccc4c3OCC43CCN(CC4CC5(CCN(c6cnc(C7c8ccc(O)cc8CCC7c7ccccc7)cn6)CC5)C4)CC3)C2=O)C(=O)N1 (stereo partly drawn) [Compound A201, (3S)-3-(1′-((7-(5-(6-hydroxy-2-phenyl-1,2,3,4-tetrahydro-naphthalen-1-yl)pyrazin-2-yl)-7-azaspiro[3.5]nonan-2-yl)-methyl)-6-oxo-6,8-dihydro-2H, 7H-spiro[furo[2,3-e]isoindole-3,4′-piperidin]-7-yl)piperidine-2,6-dione]
IC50 (MCF-7 cells): > 100 nM
Dmax (ER in MCF-7 cells; [2]): 50 to 75%
DC50 (ER in MCF-7 cells; 16 hrs treatment): < 1 nM

O=C1CC[C@H](N2Cc3cc4c(cc3C2=O)OCC42CCN(CC3CC4(CCN(c5cnc(C6c7ccc(O)cc7CCC6c6ccccc6)cn5)CC4)C3)CC2)C(=O)N1 (stereo partly drawn) [Compound A202, (3S)-3-(1′-((7-(5-(6-hydroxy-2-phenyl-1,2,3,4-tetrahydronaph-thalen-1-yl)pyrazin-2-yl)-7-azaspiro[3.5]nonan-2-yl)meth-yl)-7-oxo-5,7-dihydro-2H,6H-spiro[furo[2,3-f]isoindole-3,4′-piperidin]-6-yl)piperidine-2,6-dione]
IC50 (MCF-7 cells): > 100 nM
Dmax (ER in MCF-7 cells; [2]): 50 to 75%
DC50 (ER in MCF-7 cells; 16 hrs treatment): < 1 nM

COc1cc(N2CCC3(CC2)CC(CN2CCC4(CC2)COc2c4cc(C)c4c2CN([C@H]2CCC(=O)NC2=O)C4=O)C3)c(F)cc1[C@@H]1c2ccc(O)cc2CC[C@@H]1c1ccccc1 [Compound A203, (S)-3-(1′-((7-(2-fluoro-4-((1S,2S)-6-hydroxy-2-phenyl-1,2,3,4-tetrahydronaphthalen-1-yl)-5-methoxyphenyl)-7-azaspiro[3.5]nonan-2-yl)methyl)-5-methyl-6-oxo-6,8-dihydro-2H,7H-spiro[furo[2,3-e]isoindole-3,4′-piperidin]-7-yl)piperidine-2,6-dione]
IC50 (MCF-7 cells): < 10 nM
Dmax (ER in MCF-7 cells; [2]): > 75%
DC50 (ER in MCF-7 cells; 16 hrs treatment): < 1 nM

COc1cc(N2CC(CCN3CCN4c5ccc6c(c5OC[C@H]4C3)CN([C@H]3CCC(=O)NC3=O)C6=O)C2)c(F)cc1[C@@H]1c2ccc(O)cc2CC[C@@H]1c1ccccc1 [Compound A204, (S)-3-((R)-7-(2-(1-(2-fluoro-4-((1S,2S)-6-hydroxy-2-phenyl-1,2,3,4-tetrahydronaphthalen-1-yl)-5-methoxyphenyl)azet-idin-3-yl)ethyl)-1-oxo-1,3,5,5a, 6,7,8,9-octahydro-2H-pyrazino [1′,2′:4,5][1,4]oxazino[2,3-e]isoindol-2-yl)piperidine-2,6-dione]
IC50 (MCF-7 cells): > 100 nM
Dmax (ER in MCF-7 cells; [1]): 50 to 75%
DC50 (ER in MCF-7 cells; 16 hrs treatment): 1 to 10 nM

COc1cc(N2CC(CCN3CCC4(CC3)COc3cc5c(cc34)CN([C@H]3CCC(=O)NC3=O)C5=O)C2)c(F)cc1[C@@H]1c2ccc(O)cc2CC[C@@H]1c1ccccc1 [Compound A205, (S)-3-(1′-(2-(1-(2-fluoro-4-((1S,2S)-6-hydroxy-2-phenyl-1,2,3,4-tetrahydronaphthalen-1-yl)-5-methoxyphenyl)-azet-idin-3-yl)ethyl)-7-oxo-5,7-dihydro-2H,6H-spiro[furo[2,3-f]isoindole-3,4′-piperidin]-6-yl)piperidine-2,6-dione]
IC50 (MCF-7 cells): > 100 nM
Dmax (ER in MCF-7 cells; [2]): 25 to 50%
DC50 (ER in MCF-7 cells; 16 hrs treatment): 1 to 10 nM

COc1cc(N2CC(CCN3CCC4(CC3)COc3c4ccc4c3CN([C@H]3CCC(=O)NC3=O)C4=O)C2)c(F)cc1[C@@H]1c2ccc(O)cc2CC[C@@H]1c1ccccc1 [Compound A206, (S)-3-(1′-(2-(1-(2-fluoro-4-((1S,2S)-6-hydroxy-2-phenyl-1,2,3,4-tetrahydronaphthalen-1-yl)-5-methoxyphenyl)azet-idin-3-yl)ethyl)-6-oxo-6,8-dihydro-2H,7H-spiro[furo[2,3-e]isoindole-3,4′-piperidin]-7-yl)piperidine-2,6-dione]
IC50 (MCF-7 cells): > 100 nM
Dmax (ER in MCF-7 cells; [2]): 50 to 75%
DC50 (ER in MCF-7 cells; 16 hrs treatment): 1 to 10 nM

Cc1cc2c(c3c1C(=O)N([C@H]1CCC(=O)NC1=O)C3)OCC21CCN(C[C@H]2CCC3(CCN(c4ccc([C@@H]5c6ccc(O)cc6CC[C@@H]5c5ccccc5)cc4)CC3)OC2)CC1 [Compound A210, (S)-3-(1′-(((R)-9-(4-((1R,2S)-6-hydroxy-2-phenyl-1,2,3,4-tetrahydronaphthalen-1-yl)phenyl)-1-oxa-9-azaspiro[5.5]undecan-3-yl)methyl)-5-methyl-6-oxo-6,8-dihydro-2H,7H-spiro[furo[2,3-e]isoindole-3,4′-piperidin]-7-yl)piperidine-2,6-dione]
IC50 (MCF-7 cells): < 10 nM
Dmax (ER in MCF-7 cells; [2]): > 75%
DC50 (ER in MCF-7 cells; 16 hrs treatment): < 1 nM

COc1cc(N2CCC3(CC2)CC(CN2CCC4(CC2)COc2c4cc4c(c2Cl)C(=O)N([C@H]2CCC(=O)NC2=O)C4)C3)c(F)cc1[C@@H]1c2ccc(O)cc2CC[C@@H]1c1ccccc1 [Compound A218, (S)-3-(8-chloro-1′-((7-(2-fluoro-4-((1S,2S)-6-hydroxy-2-phenyl-1,2,3,4-tetrahydro-naphthalen-1-yl)-5-methoxy-phenyl)-7-azaspiro[3.5]nonan-2-yl)methyl)-7-oxo-5,7-dihydro-2H,6H-spiro[furo[2,3-f]isoindole-3,4′-piperidin]-6-yl)piperidine-2,6-dione]
IC50 (MCF-7 cells): < 10 nM
Dmax (ER in MCF-7 cells; [2]): > 75%
DC50 (ER in MCF-7 cells; 16 hrs treatment): < 1 nM

COc1cc(N2CCC3(CC2)CC(CN2CCC4(CC2)COc2c4cc(OC)c4c2CN([C@H]2CCC(=O)NC2=O)C4=O)C3)c(F)cc1[C@@H]1c2ccc(O)cc2CC[C@@H]1c1ccccc1 [Compound A222, (S)-3-(1′-((7-(2-fluoro-4-((1S,2S)-6-hydroxy-2-phenyl-1,2,3,4-tetrahydronaphthalen-1-yl)-5-methoxyphenyl)-7-azaspiro[3.5]nonan-2-yl)methyl)-5-methoxy-6-oxo-6,8-dihydro-2H,7H-spiro[furo[2,3-e]isoindole-3,4′-piperidin]-7-yl)piperidine-2,6-dione]
IC50 (MCF-7 cells): < 10 nM
Dmax (ER in MCF-7 cells; [2]): > 75%
DC50 (ER in MCF-7 cells; 16 hrs treatment): < 1 nM

COc1cc(N2CCC(CCN3CCC4(CC3)COc3c4cc(OC)c4c3CN([C@H]3CCC(=O)NC3=O)C4=O)CC2)c(F)cc1[C@@H]1c2ccc(O)cc2CC[C@@H]1c1ccccc1 [Compound A226, (S)-3-(1′-(2-(1-(2-fluoro-4-((1S,2S)-6-hydroxy-2-phenyl-1,2,3,4-tetrahydronaphthalen-1-yl)-5-methoxyphenyl)piperidin-4-yl)ethyl)-5-methoxy-6-oxo-6,8-dihydro-2H,7H-spiro[furo[2,3-e]isoindole-3,4′-piperidin]-7-yl)piperidine-2,6-dione]
IC50 (MCF-7 cells): < 10 nM
Dmax (ER in MCF-7 cells; [2]): > 75%
DC50 (ER in MCF-7 cells; 16 hrs treatment): < 1 nM

COc1cc(N2CCC3(CC[C@@H](CN4CCC5(CC4)COc4c5cc(C)c5c4CN([C@H]4CCC(=O)NC4=O)C5=O)CO3)CC2)c(F)cc1[C@@H]1c2ccc(O)cc2CC[C@@H]1c1ccccc1 [Compound A227, (S)-3-(1′-(((S)-9-(2-fluoro-4-((1S,2S)-6-hydroxy-2-phenyl-1,2,3,4-tetrahydronaphthalen-1-yl)-5-methoxyphenyl)-1-oxa-9-azaspiro[5.5]undecan-3-yl)methyl)-5-methyl-6-oxo-6,8-dihydro-2H,7H-spiro[furo[2,3-e]isoindole-3,4′-piperidin]-7-yl)piperidine-2,6-dione]
IC50 (MCF-7 cells): < 10 nM
Dmax (ER in MCF-7 cells; [2]): > 75%
DC50 (ER in MCF-7 cells; 16 hrs treatment): < 1 nM
